From patent US12590966B2, “Method for treating cancer” (THE CHILDREN'S MEDICAL CENTER CORPORATION, priority 2019, dated 2026)

What was measured:
[1] = system: Jurkat cells; assay: GSK3α body (puncta) formation by confocal immunofluorescence microscopy; type: cell-based, human; conditions: for Formation of GSK3α puncta on addition of amino acid: asparagine depleted cell
Description: (§1) FIGS. 4A-4D show asparagine starvation induces phase separation of GSK3α into cytoplasmic bodies (or puncta), but not GSK3b. (FIG. 4A) Confocal immunofluorescence microscopy for GSK3α or the nuclear marker DAPI, in Jurkat cells treated with vehicle or asparaginase (100 U/L) for 48 hours. (FIG. 4B) Confocal immunofluorescence microscopy for GSK3β or the nuclear marker DAPI, in Jurkat cells treated with vehicle or asparaginase (100 U/L) for 48 hours. (FIG. 4C) Number of puncta per 50 cells. (FIG. 4D) Formation of GSK3α bodies is selective to asparaginase, and is not induced by other cellular stressors such as other chemotherapeutics or heat shock. ****, p<0.0001. ns (not significant), p>0.05.
FIGS. 6A and 6B show GSK3α bodies function in the protein ubiquitination-proteasomal degradation pathway in response to asparagine starvation. (FIG. 6A) Jurkat T-ALL cells were treated with vehicle, asparaginase, the GSK3α inhibitor BRD0705, or the combination of asparaginase and BRD0705 (combo). Immunofluorescence microscopy was then performed for GSK3α, K48-linked ubiquitin chains (which mark proteins for proteasomal degradation), or the nuclear marker DAPI. Note that GSK3a can still undergo translocation into GSK3a bodies even if its enzymatic activity is inhibited, but the ability of GSK3a bodies to ubiquitinate proteins is completely dependent on the enzymatic activity of GSK3α. (FIG. 6B) Quantification of the immunofluorescence in 50 cells from each condition. Coloc refers to co-localization of both GSK3α and ubiquitin (ub), as determined by yellow color on the merged confocal image. ****, p<0.0001. ns (not significant), p>0.05.
(§2) To test whether GSK3α undergoes spatial sequestration in response to asparaginase, we applied immunofluorescence using paralog-selective antibodies (FIG. S4).

[2] = system: Jurkat T-ALL cells; assay: Co-localization of K48-linked ubiquitin with GSK3α bodies by immunofluorescence; type: cell-based, human; conditions: combination with asparaginase
Description: (FIG. 6A) Jurkat T-ALL cells were treated with vehicle, asparaginase, the GSK3α inhibitor BRD0705, or the combination of asparaginase and BRD0705 (combo). Immunofluorescence microscopy was then performed for GSK3α, K48-linked ubiquitin chains (which mark proteins for proteasomal degradation), or the nuclear marker DAPI. […] (FIG. 6B) Quantification of the immunofluorescence in 50 cells from each condition. Coloc refers to co-localization of both GSK3α and ubiquitin (ub), as determined by yellow color on the merged confocal image. ****, p<0.0001. ns (not significant), p>0.05.

[3] = system: Jurkat cells
From the text: It was then sought to determine whether GSK3α promotes survival in response to starvation of these amino acids. […] It was then asked whether GSK3α promotes the survival of normal cells in response to essential amino acid starvation, using normal human CD34+ hematopoietic progenitors or CCD841 cells derived from normal human intestinal epithelium (38).

[4] = system: normal human CD34+ hematopoietic progenitors; assay: Survival under essential amino acid starvation; type: cell-based
[5] = system: CCD841 cells derived from normal human intestinal epithelium; assay: Survival under essential amino acid starvation; type: cell-based
[6] = system: Jurkat cells; assay: GSK3β localization by confocal immunofluorescence microscopy; type: cell-based, human; conditions: asparaginase 100 U/L for 48 hours
Description: as §1, §2

[7] = system: Jurkat cells; assay: Proteinase K protection assay of GSK3α; type: cell-based, human; conditions: Jurkat cells permeabilized with digitonin, Western blot
Description: Jurkat cells were treated with vehicle, asparaginase (×48 hrs) to induce formation of GSK3α bodies, or Wnt3A to induce GSK3 sequestration in membrane-bound multivesicular bodies (Taelman et al., 2010). Cells were permeabilized, and treated with vehicle or proteinase K to digest free cytoplasmic proteins. Triton is a control that dissolves all membranes.
It was then determined whether GSK3α bodies are membraneless using the proteinase K protection assay. Jurkat cells were treated with vehicle or asparaginase to trigger GSK3α body formation. As a positive control, treatment with Wnt3A was included, which triggers sequestration of GSK3 inside membrane-bound multivesicular endosomes (19). Following cytoplasmic membrane permeabilization with digitonin, cells were treated with proteinase K, and GSK3α protein levels were assessed by Western blot analysis. […] These findings indicate that GSK3α bodies are membraneless.

Row | Molecule | Survival under essential amino acid starvation [4] | Survival under essential amino acid starvation [5] | Formation of GSK3α puncta on addition of amino acid [1] | Accessibility of GSK3α to proteinase K digestion [7] | also measured
1 | CC[C@@]1(c2ccccc2)C2=C(CC(C)(C)CC2=O)Nc2[nH]ncc21 [BRD0705] | impaired survival | impaired survival | – | – | Effect on GSK3α biomolecular condensation in response to asparaginase ([1]; Jurkat T-ALL cells, combination with asparaginase): did not block the ability of GSK3α to undergo biomolecular condensation; Accumulation of ubiquitin in GSK3α bodies [2]: did prevent accumulation of ubiquitin in GSK3α bodies; Viability in leucine-deficient medium ([3]; leucine-deficient medium): impaired viability; Viability in valine-deficient medium ([3]; valine-deficient medium): impaired viability
2 | CC[C@]1(c2ccccc2)C2=C(CC(C)(C)CC2=O)Nc2[nH]ncc21 [BRD5648] | had no effect | had no effect | – | – | –
3 | NC(=O)C[C@H](N)C(=O)O [L-Asn, asparagine] | – | – | inhibits the formation of GSK3α puncta | – | –
4 | NC(=O)CC[C@H](N)C(=O)O [L-Glut, glutamine] | – | – | does not | – | –
5 | asparaginase | – | – | – | remained accessible to proteinase K digestion | GSK3α body formation (condensation into cytoplasmic puncta) induced by treatment ([1]; Jurkat cells, asparaginase 100 U/L for 48 hours): triggered its condensation into distinct cytoplasmic puncta; GSK3β localization after treatment [6]: remained broadly distributed regardless of asparaginase therapy
6 | Wnt3A: positive control that triggers sequestration of GSK3 inside membrane-bound multivesicular endosomes (protein, UniProt P56704 19-352, looked up) Protein Wnt-3a: SYPIWWSLAVGPQYSSLGSQPILCASIPGLVPKQLRFCRNYVEIMPSVAEGIKIGIQECQHQFRGRRWNCTTVHDSLAIFGPVLDKATRESAFVHAIASAGVAFAVTRSCAEGTAAICGCSSRHQGSPGKGWKWGGCSEDIEFGGMVSREFADARENRPDARSAMNRHNNEAGRQAIASHMHLKCKCHGLSGSCEVKTCWWSQPDFRAIGDFLKDKYDSASEMVVEKHRESRGWVETLRPRYTYFKVPTERDLVYYEASPNFCEPNPETGSFGTRDRTCNVSSHGIDGCDLLCCGRGHNARAERRREKCRCVFHWCCYVSCQECTRVYDVHTCK | – | – | – | protected from protease digestion | –
